Assay results reported in patent publication US12599685B2, “Tumor stroma imaging agent and preparation method thereof” (SHANGHAI UNIVERSITY OF MEDICINE & HEALTH SCIENCES, priority 2020, dated 2026).

Assays:
[1] = system: HT-1080-FAP cell line; assay: Cell binding experiment of (S)-[18F]-AlF-NOTA-Bn-FAPI-4; format: cell-based, human; settings: 1 h incubation
Experimental: (S)—[^18F]—AlF-NOTA-Bn-FAPI-4 was adopted as an experimental group, AlF-FAPI-75+(S)—[^18F]—AlF-NOTA-Bn-FAPI-4 was adopted as a blockage group, and free ^18F^− was adopted as a control group.
A human fibrosarcoma cell HT-1080-FAP (HT-1080-FAP cell line) transfected by an FAP gene was activated to obtain an HT-1080-FAP cell suspension.
(§1) The experimental group: 2 mL of the HT-1080-FAP cell suspension was taken and washed three times with frozen PBS. A complete medium including the imaging agent (S)—[^18F]—AlF-NOTA-Bn-FAPI-4 (2.96 MBq, 80 μCi) was added, and the resulting mixture was incubated for 1 h. The cells were washed three times with frozen PBS, and 0.5 mL of NaOH-sodium dodecyl sulfate (SDS) (1M NaOH, 1% SDS) was added for lysis. The resulting cell lysate was finally collected, placed in a marked γ-counting tube, and subjected to γ-counting.
as §1, with “blockage” for “experimental”, “PBS. A complete medium including the blocker AlF-FAPI-75 was added, and the resulting mixture was incubated for 0.5 h.” for “PBS.”, “NaOH-SDS (1 M” for “NaOH-sodium dodecyl sulfate (SDS) (1M”
as §1, with “control” for “experimental”, “free ^18F^−” for “imaging agent (S)—[^18F]—AlF-NOTA-Bn-FAPI-4”, “NaOH-SDS (1 M” for “NaOH-sodium dodecyl sulfate (SDS) (1M”, “γ-counting. The final volumes of the groups were the same.” for “γ-counting.”

[2] = system: tumor-bearing mice; assay: Biodistribution in tumor-bearing mice; format: in vivo
Experimental: Six mice were divided into an experimental group and a blockage group with 3 mice in each group. Mice in the experimental group each were injected with (S)—[^18F]—AlF-NOTA-Bn-FAPI-4 (3.7 MBq, 100 μCi) through a tail vein within 1 min, and 60 min later, the mice each were sacrificed by cutting a carotid artery for bloodletting. Mice in the blockage group each were injected with 100 μg of the blocker AlF-FAPI-75 (1,000 μg/mL) through a tail vein and injected with (S)—[^18F]—AlF-NOTA-Bn-FAPI-4 (3.7 MBq, 100 μCi) through a tail vein 30 min later, and 60 min later, the mice each were sacrificed by cutting a carotid artery for bloodletting. The heart, liver, lung, kidney, spleen, brain, and the like were collected, weighed, and tested for radioactivity. Finally, an (S)—[^18F]—AlF-NOTA-Bn-FAPI-4 radioactivity uptake rate (a percentage of uptake radioactivity per gram of tissue in the injected radioactivity, ID/g) in each of blood and various organs and a radioactivity ratio of a target organ to a non-target organ (T/NT) were calculated at different time points.

[3] = blockage group: 100 μg AlF-FAPI-75 i.v. 30 min before tracer, 1 h after injection
[4] = experimental group, 1 h after tail vein injection, 3.7 MBq
[5] = tumor-bearing mice, 1 h after injection

Distribution, Blood [2, 3]: 0.13±0.10 % ID/g
Distribution, Bone [2, 3]: 0.06 ± 0.01 % ID/g
Distribution, Brain [2, 3]: 0.03 ± 0.01 % ID/g
Distribution, Heart [2, 3]: 0.08 ± 0.05 % ID/g
Distribution, Intestine [2, 3]: 0.16 ± 0.02 % ID/g
Distribution, Kidney [2, 3]: 0.84±0.21 % ID/g
Distribution, Liver [2, 3]: 0.08 ± 0.04 % ID/g
Distribution, Lung [2, 3]: 0.28 ± 0.19 % ID/g
Distribution, Muscle [2, 3]: 0.09 ± 0.03 % ID/g
Distribution, Spleen [2, 3]: 0.16 ± 0.14 % ID/g
Distribution, Tumor [2, 3]: 0.22±0.05 % ID/g
Distribution, Blood [2, 4]: 0.10±0.04 % ID/g
Distribution, Bone [2, 4]: 0.15 ± 0.03 % ID/g
Distribution, Brain [2, 4]: 0.02 ± 0.01 % ID/g
Distribution, Heart [2, 4]: 0.09 + 0.09 % ID/g
Distribution, Intestine [2, 4]: 0.19 ± 0.06 % ID/g
Distribution, Kidney [2, 4]: 0.94±0.20 % ID/g
Distribution, Liver [2, 4]: 0.07 ± 0.05 % ID/g
Distribution, Lung [2, 4]: 0.16 ± 0.08 % ID/g
Distribution, Muscle [2, 4]: 0.16 ± 0.05 % ID/g
Distribution, Spleen [2, 4]: 0.10 ± 0.01 % ID/g
Distribution, Tumor [2, 4]: 1.12±0.06 % ID/g
clearance in the blood [2, 5]: quickly cleared in the blood
route of excretion [2, 5]: mainly excreted by the kidney
Substance: (S)—[^18F]—AlF-NOTA-Bn-FAPI-4
absorption of tumor cells, experimental group relative to blockage group ([1]; t=6.713, P<0.05): 3 times
absorption of tumor cells, experimental group relative to control group (free 18F-) ([1]; t=8.934, P<0.01): 33.31 times
Radioactivity count value ([1]; HT-1080-FAP cells, 2.96 MBq (80 μCi), no blocker): 5999.98 ± 864.12 γ count value/min
Radioactivity count value ([1]; blockage group: blocker AlF-FAPI-75 incubated 0.5 h, then imaging agent 2.96 MBq): 2000.01 ± 113.34 γ count value/min
